In series [1] the test system is Tubulin, derived from pig brain. The settings on record: for effect on the polymerization of tubulin (in words): increase in the latent period, decrease in the rate of polymerization, lower turbidity in the stationary state; for IC50: read-out: concentration which inhibits by 50% the polymerization of tubulin, tubulin 8.5 μM, 37° C., 30 minutes, product 0.8 to 16 μM. The source says:
The assembly of tubulin into microtubules results in an increase in the turbidity observed at 350 nm with the aid of spectrophotometer.

For the next series, the system named is resistant lines P388/DOX. As to conditions: p388 leukaemia cells.
Series [2] relates to murine leukaemia cell lines P388. As to conditions: p388 leukaemia cells.

Where two headings read alike, the source gives them in different places.

In the case of `C=CC1CC(Cc2ccc(OC)c(O)c2)C2C(=O)C=CC(=C)C12` (stereo not drawn) [formula (I), 3-(3-hydroxy-4-methoxybenzyl)-7-methylene-1-vinyl-2,3,3a,4,7,7a-hexahydroinden-4-one], the “effect on the polymerization of tubulin (in words)” value in series [1] is given as “inhibition of the polymerization of tubulin”. Also, the values for the IC50 in series [1] and in series [1] (listed as 3-(3-hydroxy-4-methoxybenzyl)-7-methylene-1-vinyl-2,3,3a,4,7,7a-hexahydroinden-4) were less than 5 nM and less than 1 nM, respectively.
Take `C=CC1CC(Cc2ccc(OC)c(O)c2)c2c(O)ccc(C)c21` (stereo not drawn) [formula (II), 3-(3-hydroxy-4-methoxybenzyl)-4-hydroxy-7-methyl-1-vinylindan]: the cytotoxicity result (in the series with resistant lines P388/DOX; in series [2]) was “less than 1 μg/cm^3” in each case. For the same compound, the “effect on the polymerization of tubulin (in words)” value in series [1] is listed as “inhibition of the polymerization of tubulin”.

Source of the values: US5716994A, “Antitumor and antileukaemic substances, their preparation and pharmaceutical compositions containing them” (Rhone-Poulenc Rorer S.A., priority 1994, dated 1998).
